Patent US20240366579A1, “PHARMACEUTICAL COMPOSITION COMPRISING GPR40 AGONIST AND SGLT-2 INHIBITOR” (ILDONG PHARMACEUTICAL CO., LTD., priority 2021, published 2024)

System: Sprague-Dawley (SD) rats
Test: oral glucose tolerance test (OGTT) in SD rats, reduction rate in blood glucose AUC relative to vehicle
Assay type: in vivo, rat
Details: male SD rats
Method: In this experiment, the compound represented by Formula 1 was prepared by the method described in Example 5 of Korean Patent Laid-Open Publication No. 10-2018-0069718 and dapagliflozin (HY-10450, MedChemExpress Co., Ltd.) was used. As a control group, a vehicle (0.5% carboxymethyl cellulose (CMC)) was used.
After at least 1 week of acclimatization of 8 to 10 week-old male Sprague-Dawley (SD) rats, an oral glucose tolerance test (OGTT) was performed using healthy rats.
After 16 hours of fasting, the rats were randomly divided into groups each having 5 rats similar in body weight and blood glucose level, followed by administration of the vehicle (0.5% carboxymethyl cellulose (CMC)), 0.3 mg/kg of the compound represented by Formula 1 alone, 0.1 mg/kg of dapagliflozin alone, or a combination of 0.3 mg/kg of the compound represented by Formula 1 and 0.1 mg/kg of dapagliflozin. One hour after administration of each of the drugs, glucose (2 g/kg) was intraperitoneally injected at a dose of 10 ml/kg. Blood glucose level was measured 60 minutes before glucose injection and 0, 15, 30, 60, and 120 minutes after glucose injection through puncture of the caudal vein using a blood glucose meter (Gluco DR. Almedicus. Co. Ltd.). Results were expressed by a reduction rate (%) in area under the blood glucose curve (AUC) relative to administration of the vehicle.
Results of measuring AUC from 0 to 60 min and from 0 to 120 min after glucose injection according to the above method are shown in Table 1 and FIG. 1.
An experiment was conducted in the same manner as in Example 1 except that 0.3 mg/kg of empagliflozin (HY-15409, MedChemExpress Co., Ltd.) was used instead of 0.1 mg/kg of dapagliflozin.

[1] = Example 1, 0.3 mg/kg alone, 1 h before glucose 2 g/kg
[2] = Example 2, Formula 1 0.3 mg/kg alone
[3] = Example 2, empagliflozin 0.3 mg/kg alone
[4] = Example 1, 0.1 mg/kg alone, 1 h before glucose 2 g/kg

SMILES: CC#C[C@@H](CC(=O)O)c1ccc(O[C@@H]2CCc3c(-c4ccc(O[C@@H]5CCOC5)nc4)ccc(F)c32)cc1 [Compound of Formula 1, (S)-3-(4-(((R)-7-fluoro-4-(6-(((R)-tetrahydrofuran-3-yl)oxy)pyridin-3-yl)-2,3-dihydro-1H-inden-1-yl)oxy)phenyl)hex-4-ynoic acid]
- reduction rate (%) in area under the blood glucose curve AUC (0-60 min) relative to vehicle [1]: 17.9%
- reduction rate (%) in area under the blood glucose curve AUC (0-120 min) relative to vehicle [1]: 18.1%
- reduction rate (%) in area under the blood glucose curve AUC (0-60 min) relative to vehicle [2]: 21.3%
- reduction rate (%) in area under the blood glucose curve AUC (0-120 min) relative to vehicle [2]: 21.6%

SMILES: OC[C@H]1O[C@@H](c2ccc(Cl)c(Cc3ccc(O[C@H]4CCOC4)cc3)c2)[C@H](O)[C@@H](O)[C@@H]1O [Empagliflozin, empagliflozin]
- reduction rate (%) in area under the blood glucose curve AUC (0-60 min) relative to vehicle [3]: 5.5%
- reduction rate (%) in area under the blood glucose curve AUC (0-120 min) relative to vehicle [3]: 4.0%

SMILES: CCOc1ccc(Cc2cc([C@@H]3O[C@H](CO)[C@@H](O)[C@H](O)[C@H]3O)ccc2Cl)cc1 [Dapagliflozin, dapagliflozin]
- reduction rate (%) in area under the blood glucose curve AUC (0-60 min) relative to vehicle [4]: 9.8%
- reduction rate (%) in area under the blood glucose curve AUC (0-120 min) relative to vehicle [4]: 6.7%
